Type in all cases: cell-based, human
Assay [1] concerns USB1 mutant cells. Kind of assay: miRNA levels by qRT-PCR in USB1 mutant cells. The note with it: normalized to 5s rRNA; RG7834 (104) vs DMSO; FIG. 4A. On the technique in general: Real-time PCR tracks product formation cycle by cycle.
The test system of assay [2] is undifferentiated USB1 mutant cells. The assay is described as follows: 3′ end sequencing of miR-125a-5p in undifferentiated USB1 mutant cells. The settings on record: RG7834 1 μM, FIG. 4B. The protocol:
3′ end library preparation and analysis: 3′ end libraries were prepared as previously described (23, 41). Briefly, 30 ng of DNA-free rRNA-depleted RNA was treated with Antarctic Phosphatase (NEB), and two RNA appendices containing a unique barcode were ligated to equal amount of the input RNA using T4 RNA Ligase I (NEB). Reactions were cleaned up using RNA clean & concentrator kit (Zymo Research) and cDNA was prepared using an RNA appendix-specific primer and Superscript III RT (Invitrogen). cDNA was used as a template for […] using a miRNA-specific reverse primer containing a barcode, a universal primer and Phusion HF DNA polymerase (NEB). RACE products were separated on a 1% Agarose TAE gel, 100-180 bp DNA fragments were excised and DNA was eluted. Illumina-compatible libraries were prepared by amplifying RACE product using Illumina primers, and sequenced on a HiSeq lane (Illumina) using the 2×150 kit. Libraries were demultiplexed and unique reads aligning to the exact miRNA sequence were quantified. miRNA 3′ ends were obtained from miRbase v22.

Assay [3] concerns USB1 mutant cells. Kind of assay: Colony forming culture (CFC) assay of definitive hematopoietic progenitors. The settings on record: chemical inhibition of PAPD5; RG7834 0.5 μM vs DMSO; FIG. 4E. The protocol: (§1) Hematopoietic differentiation: Definitive hematopoietic differentiation from hESCs was performed as previously described (14). Briefly, hESCs were cultured on Matrigel (BD Bioscience) for 1 day to deplete MEFs. On Day 0, cells were dissociated with 0.05% trypsin (Gibco) for 1 min and incubated with serumfree media [SFD: IMDM supplemented with 25% Hams F12, 0.05% BSA, 1× B27 supplement (Gibco), 0.5× N2 supplement (Gibco), 2 mM L-glutamine (Gibco), 50 μg/ml ascorbic acid (Gibco), 4×10−4 M monothioglycerol (Millipore Sigma), and 150 μg/ml transferrin] supplemented with 10 ng/ml BMP4 on 6 well plates coated with a 5% poly(2-hydroxyethyl methacrylate) solution (Millipore Sigma). On Day 1, one additional volume of SFD was added, containing 10 ng/ml BMP4 and 5 ng/ml bFGF. On Day 2, media was changed to fresh SFD supplemented with 10 ng/ml BMP4, 5 ng/ml bFGF, 3 μM CHIR99021, and 6 μM SB-431542. On Day 3, media was changed to StemPro-34 media [SP-34: StemPro-34 supplemented with 2 mM L-glutamine (Gibco), 1 mM ascorbic acid (Gibco), 4×10−4M monothioglycerol, 150 μg/ml transferrin] supplemented with 15 ng/ml VEGF and 5 ng/ml bFGF. On Day 6, one additional volume of SP-34 supplemented with 15 ng/ml VEGF, 5 ng/ml bFGF, 20 ng/ml IL-6, 50 ng/ml IGF1, 10 ng/ml IL-11, 200 ng/ml SCF, and 4 IU EPO was added. […]

The test system of assay [4] is USB1 c.531delA CD34+/CD45+ cells. Kind of assay: Flow cytometry of hematopoietic CD34+/CD45+ progenitor cells. The settings on record: RG7834 0.5 μM; FIG. 10B. How it is done: as §1
For orientation: Flow cytometry measures light scatter and fluorescence of single cells or particles in a stream.

The subject of assay [5] is USB1 mutant cells. The assay is described as follows: Flow cytometry following neutrophil differentiation. The note with it: CD45+CD14-CD11b+CD16 cells; FIG. 4F. The protocol: Flow cytometry and Cell sorting: Flow cytometry analysis was performed using the BD LSR Fortessa and FACS sorting by BD FACS Aria II at the Department of Pathology & Immunology Flow Cytometry Core at Washington University in St. Louis. The antibodies were used as follows; KDR (clone 89106), CD235a-APC (clone HIR2), CD34-APC (clone 8G12), CD34-PE-Cy7 (clone 4H11), CD43-PE or -FITC (clone 1G10), CD73-PE (clone AD2), CD184-APC (clone 12G5), CD45-PE (clone HI30), CD14-PE Cy7 (clone MφP9), CD15-BV421 (W6D3), CD66b-FITC (clone G10F5). All antibodies were purchased from BD Biosciences, but CD15 and CD66b were obtained from BioLegend. For cell cycle analysis, Click-iT EdU Alexa Fluor 488 kit (Life Technologies) was used following manufacturer's instructions.

For `COCCCOc1cc2c(cc1OC)-c1cc(=O)c(C(=O)O)cn1[C@H](C(C)C)C2` [RG7834], in the assay on USB1 mutant cells [1], the “levels of miRNAs that were reduced in USB1 mutant cells” value is “rescued”. In assay [2], the “non-adenylated form of miR-125a-5p” value is on record as “increase” and the “oligoadenylated miR-125a-5p” value was “decrease”. In addition, the “colony-formation potential in USB1 mutants” value in the assay on USB1 mutant cells [3] was “rescued”. The “hematopoietic CD34+/CD45+ progenitor cells” value in assay [4] is reported as “increase”. Besides, in the assay on USB1 mutant cells [5], the “neutrophil formation in USB1 mutant cells” value is “improved”.

For the origin of these results see US12109224B2, “USB1 directed regulation of miRNAs related hematopoietic differentiation and affected in multiple forms of leukemia” (The Regents of the University of Colorado, a body corporate, priority 2020, dated 2024).
